Reference: US8288371B2, “Ortho pyrrolidine, benzyl-substituted heterocycle CCR1 antagonists for autoimmune diseases and inflammation” (Pharmacopeia, LLC, priority 2007, dated 2012)

biological target: T1, human CCR1 (Homo sapiens, UniProt P32246); assay: CCR1 binding protocol (SPA, [125I]-MIP-1α displacement); details: cell membrane expressing human CCR1, 0.1 nM [125I]-MIP-1α, 4 hours at ambient temperature; read-out: Relative potency (IC50)
T1 sequence (P32246 1-355): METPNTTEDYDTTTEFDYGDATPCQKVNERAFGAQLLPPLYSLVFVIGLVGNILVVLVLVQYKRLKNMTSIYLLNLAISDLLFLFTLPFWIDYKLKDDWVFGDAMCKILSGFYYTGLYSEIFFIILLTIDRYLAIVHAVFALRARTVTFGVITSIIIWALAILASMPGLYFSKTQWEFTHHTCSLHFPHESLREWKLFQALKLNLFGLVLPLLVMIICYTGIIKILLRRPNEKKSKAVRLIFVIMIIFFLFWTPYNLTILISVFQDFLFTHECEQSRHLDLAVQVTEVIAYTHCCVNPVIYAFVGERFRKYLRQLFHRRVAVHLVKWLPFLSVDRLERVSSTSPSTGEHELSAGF
Experimental: The following protocol was used to test compounds for CCR1 binding. A mixture, including scintillation proximity assay (SPA) beads and cell membrane expressing human CCR1, was prepared in assay buffer (130 mM NaCl+5 mM KCl+1 mM MnCl+50 mM Tris HCl at pH 7.4+0.1% bovine serum albumin (BSA)) at the ratio of 50 μg/ml membrane to 10 mg/ml SPA beads. 10 μl of the mixture was transferred to each well of a 384-well assay plate yielding a final concentration for the membrane and SPA beads of 0.5 μg/well and 100 μg/well, respectively
To generate different concentrations of the test compound, compound stocks were prepared using 10 step ½ log dilutions with a high concentration of 10 mM in DMSO and the lowest concentration being DMSO only without compound. An intermediate 40× dilution was then prepared in the assay buffer. The compound was then transferred at 10 μl/well to the assay plate. 0.5 nM [^125 I]-labeled macrophage inflammatory protein-1α (MIP-1α, an endogenous CCR1 ligand) in the assay buffer was transferred to the assay plate at 5 μl/well, for a final ligand concentration of 0.1 nM. The assay plate was then centrifuged at 2500 rpm for 2 minutes and incubated for 4 hours at ambient temperature, at which time the raw data was recorded using microbeta. The IC50 was then calculated using Graphpad Prism.

SMILES | IC50 [nM]
O=C(N[C@H]1CCOc2cc(C(F)(F)F)ccc21)N1CCC[C@@H]1c1ncnn1Cc1ccc(Cl)cc1 [Compound 57] | < 50
Cc1cc(C(F)(F)F)cc(C)c1NC(=O)N1CCC[C@@H]1c1ncnn1Cc1ccc(Cl)cc1 [Compound 58] | < 50
O=C(N[C@H]1CCOc2cc(Cl)ccc21)N1CCC[C@@H]1c1ncnn1Cc1ccc(Cl)cc1 [Compound 65] | 50 to 500
CSc1ccc(NC(=O)N2CCC[C@@H]2c2ncnn2Cc2ccc(Cl)cc2)cc1 [Compound 67] | 50 to 500
O=C(Nc1ccc(Cl)cc1F)N1CCC[C@@H]1c1ncnn1Cc1ccc(Cl)cc1 [Compound 68] | 50 to 500
Cn1ncc(-c2ccccc2)c1NC(=O)N1CCC[C@@H]1c1ncnn1Cc1ccc(Cl)cc1 [Compound 69] | 50 to 500
O=C(Nc1ccc(C(F)(F)F)cc1Cl)N1CCC[C@@H]1c1ncnn1Cc1ccc(Cl)cc1 [Compound 70] | 50 to 500
O=C(Nc1ccc2nonc2c1)N1CCC[C@@H]1c1ncnn1Cc1ccc(Cl)cc1 [Compound 71] | 50 to 500
CC(C)Cc1ccc([C@H](C)NC(=O)N2CCC[C@@H]2c2ncnn2Cc2ccc(Cl)cc2)cc1 [Compound 75] | 50 to 500
CC1(C)CC[C@H](NC(=O)N2CCC[C@@H]2c2ncnn2Cc2ccc(Cl)cc2)c2ccccc21 [Compound 79] | 500 to 5000
CC[C@H](NC(=O)N1CCC[C@@H]1c1ncnn1Cc1ccc(Cl)cc1)c1cc2ccccc2o1 [Compound 80] | < 50
C[C@H](NC(=O)N1CCC[C@@H]1c1ncnn1Cc1ccc(Cl)cc1)c1cc2ccccc2o1 [Compound 81] | < 50
CC1(C)CC(NC(=O)N2CCC[C@@H]2c2ncnn2Cc2ccc(Cl)cc2)c2ccccc2O1 (stereo partly shown) [Compound 85] | 50 to 500
O=C(NC1CCc2cc(C(F)(F)F)ccc21)N1CCC[C@@H]1c1ncnn1Cc1ccc(Cl)cc1 (stereo partly shown) [Compound 86] | 50 to 500
O=C(NC1CCCOc2cc(Cl)ccc21)N1CCC[C@@H]1c1ncnn1Cc1ccc(Cl)cc1 (stereo partly shown) [Compound 88] | 500 to 5000
O=C(Nc1ccc2occc2c1)N1CCC[C@@H]1c1ncnn1Cc1ccc(Cl)cc1 [Compound 91] | 50 to 500
Cc1nc([C@H]2CCCN2C(=O)Nc2ccc(C(F)(F)F)cc2)n(Cc2ccc(Cl)cc2)n1 [Compound 92] | 500 to 5000
O=C(N[C@H]1CCCOc2ccc(Cl)cc21)N1CCC[C@@H]1c1ncnn1Cc1ccc(Cl)cc1 [Compound 93] | 50 to 500
Cc1nc([C@H]2CCCN2C(=O)Nc2c(C)cc(C(F)(F)F)cc2C)n(Cc2ccc(Cl)cc2)n1 [Compound 94] | 50 to 500
CC[C@H](NC(=O)N1CCC[C@@H]1c1nc(C)nn1Cc1ccc(Cl)cc1)c1cc2ccccc2o1 [Compound 95] | 50 to 500

SMILES | IC50 [nM]
CN1C(=O)COc2ccc(NC(=O)N3CCC[C@@H]3c3ncnn3Cc3ccc(Cl)cc3)cc21 [Compound 99] | 50 to 500
O=C(NC1(c2ccccc2)CC1)N1CCC[C@@H]1c1ncnn1Cc1ccc(Cl)cc1 [Compound 100] | 500 to 5000
Cc1cc(C(F)(F)F)cc(C)c1NC(=O)N1CCC[C@@H]1c1nncn1Cc1ccc(Cl)cc1 [Compound 101] | < 50
Cc1cc(C(F)(F)F)cc(C)c1NC(=O)N1CCC[C@@H]1c1nnc(C)n1Cc1ccc(Cl)cc1 [Compound 102] | < 50
O=C(N[C@H]1CCc2ccccc2C1)N1CCC[C@@H]1c1nncn1Cc1ccc(Cl)cc1 [Compound 103] | < 50
Cc1cc(C(F)(F)F)ccc1NC(=O)N1CCC[C@@H]1c1nncn1Cc1ccc(Cl)cc1 [Compound 104] | < 50
Cc1noc(-c2ccccc2)c1NC(=O)N1CCC[C@@H]1c1nncn1Cc1ccc(Cl)cc1 [Compound 105] | < 50
Cc1cc(Cl)cc(C)c1NC(=O)N1CCC[C@@H]1c1nncn1Cc1ccc(Cl)cc1 [Compound 106] | < 50
O=C(N[C@H]1CCOc2cc(C(F)(F)F)ccc21)N1CCC[C@@H]1c1nncn1Cc1ccc(Cl)cc1 [Compound 107] | < 50
O=C(Nc1ccc(C(F)(F)F)cc1)N1CCC[C@@H]1c1nncn1Cc1ccc(Cl)cc1 [Compound 108] | < 50
O=C(NC1CCS(=O)(=O)c2ccccc21)N1CCC[C@@H]1c1nncn1Cc1ccc(Cl)cc1 (stereo partly shown) [Compound 110] | < 50
Cc1nnc([C@H]2CCCN2C(=O)N[C@H]2CCOc3cc(C(F)(F)F)ccc32)n1Cc1ccc(Cl)cc1 [Compound 111] | < 50
Cc1nnc([C@H]2CCCN2C(=O)Nc2ccc(C(F)(F)F)cc2)n1Cc1ccc(Cl)cc1 [Compound 112] | 50 to 500
Cc1cc(Cl)cc(C)c1NC(=O)N1CCC[C@@H]1c1nnc(C)n1Cc1ccc(Cl)cc1 [Compound 115] | < 50
CC[C@H](NC(=O)N1CCC[C@@H]1c1nnc(C)n1Cc1ccc(Cl)cc1)c1cc2ccccc2o1 [Compound 117] | < 50
Cc1cc(C(F)(F)F)cc(C)c1NC(=O)N1CCC[C@@H]1c1nnc(C(C)C)n1Cc1ccc(Cl)cc1 [Compound 118] | 50 to 500
CC[C@H](NC(=O)N1CCC[C@@H]1c1nncn1Cc1ccc(Cl)cc1)c1c(C)cc(C(F)(F)F)cc1C [Compound 120] | < 50
O=C(Nc1ccc2occc2c1)N1CCC[C@@H]1c1nncn1Cc1ccc(Cl)cc1 [Compound 121] | 50 to 500
Cc1nnc([C@H]2CCCN2C(=O)Nc2ccc3occc3c2)n1Cc1ccc(Cl)cc1 [Compound 122] | 50 to 500

Results, then the compound that gave them:

IC50 [nM] | SMILES
< 50 | Cc1noc(-c2ccccc2)c1NC(=O)N1CCC[C@@H]1c1ncnn1Cc1ccc(Cl)cc1 [Compound 60]
< 50 | Cc1cc(C(F)(F)F)cc(Br)c1NC(=O)N1CCC[C@@H]1c1ncnn1Cc1ccc(Cl)cc1 [Compound 61]
< 50 | Cc1onc(-c2ccccc2)c1NC(=O)N1CCC[C@@H]1c1ncnn1Cc1ccc(Cl)cc1 [Compound 62]
< 50 | Cc1cc(C(F)(F)F)ccc1NC(=O)N1CCC[C@@H]1c1ncnn1Cc1ccc(Cl)cc1 [Compound 63]
< 50 | O=C(Nc1ccc(C(F)(F)F)cc1)N1CCC[C@@H]1c1ncnn1Cc1ccc(Cl)cc1 [Compound 64]
50 to 500 | Cc1cc(Cl)cc(C)c1NC(=O)N1CCC[C@@H]1c1ncnn1Cc1ccc(Cl)cc1 [Compound 66]
50 to 500 | N#Cc1ccc2c(c1)OCCC2NC(=O)N1CCC[C@@H]1c1ncnn1Cc1ccc(Cl)cc1 (stereo partly shown) [Compound 72]
50 to 500 | O=C(Nc1ccc(SC(F)(F)F)cc1)N1CCC[C@@H]1c1ncnn1Cc1ccc(Cl)cc1 [Compound 74]
50 to 500 | CS(=O)(=O)c1ccc(NC(=O)N2CCC[C@@H]2c2ncnn2Cc2ccc(Cl)cc2)cc1 [Compound 76]
50 to 500 | CC1(C)CC[C@@H](NC(=O)N2CCC[C@@H]2c2ncnn2Cc2ccc(Cl)cc2)c2ccccc21 [Compound 77]
500 to 5000 | O=C(NC1CCS(=O)(=O)c2ccccc21)N1CCC[C@@H]1c1ncnn1Cc1ccc(Cl)cc1 (stereo partly shown) [Compound 78]
< 50 | O=C(N[C@H]1CCCc2cc(C(F)(F)F)ccc21)N1CCC[C@@H]1c1ncnn1Cc1ccc(Cl)cc1 [Compound 82]
50 to 500 | Cc1nc(-c2ccccc2)sc1NC(=O)N1CCC[C@@H]1c1ncnn1Cc1ccc(Cl)cc1 [Compound 83]
50 to 500 | O=C(NC1CCCOc2ccc(Cl)cc21)N1CCC[C@@H]1c1ncnn1Cc1ccc(Cl)cc1 (stereo partly shown) [Compound 84]
50 to 500 | O=C(NC1CCCOc2cccc(Cl)c21)N1CCC[C@@H]1c1ncnn1Cc1ccc(Cl)cc1 (stereo partly shown) [Compound 87]
< 50 | O=C(NC1CCCOc2ccccc21)N1CCC[C@@H]1c1ncnn1Cc1ccc(Cl)cc1 (stereo partly shown) [Compound 89]
50 to 500 | CC[C@H](NC(=O)N1CCC[C@@H]1c1ncnn1Cc1ccc(Cl)cc1)c1c(C)cc(C(F)(F)F)cc1C [Compound 90]
500 to 5000 | Cc1nc([C@H]2CCCN2C(=O)N[C@H]2CCOc3cc(C(F)(F)F)ccc32)n(Cc2ccc(Cl)cc2)n1 [Compound 96]
500 to 5000 | CC[C@H](NC(=O)N1CCC[C@@H]1c1nc(C)nn1Cc1ccc(Cl)cc1)c1c(C)cc(C(F)(F)F)cc1C [Compound 97]
50 to 500 | O=C(NC1(c2ccc(C(F)(F)F)cc2)CC1)N1CCC[C@@H]1c1ncnn1Cc1ccc(Cl)cc1 [Compound 98]
< 50 | Cc1onc(-c2ccccc2)c1NC(=O)N1CCC[C@@H]1c1nncn1Cc1ccc(Cl)cc1 [Compound 109]
< 50 | Cc1nnc([C@H]2CCCN2C(=O)N[C@H]2CCOc3cc(Cl)ccc32)n1Cc1ccc(Cl)cc1 [Compound 113]
< 50 | O=C(N[C@H]1CCOc2cc(Cl)ccc21)N1CCC[C@@H]1c1nncn1Cc1ccc(Cl)cc1 [Compound 114]
< 50 | CC[C@H](NC(=O)N1CCC[C@@H]1c1nncn1Cc1ccc(Cl)cc1)c1cc2ccccc2o1 [Compound 116]
< 50 | CC[C@H](NC(=O)N1CCC[C@@H]1c1nnc(C)n1Cc1ccc(Cl)cc1)c1c(C)cc(C(F)(F)F)cc1C [Compound 119]
